# Measured values from patent US8785614B2, “Aberrantly methylated genes in pancreatic cancer” (The Johns Hopkins University, priority 2003, dated 2014).
# Where two headings read alike, the source gives them in different places.
# Experiments:
# [1] = system: Panc1 pancreatic cancer cell line
# Description: Mock-treated cells were cultured with the equivalent volume of PBS alone.
# Total RNA was isolated from cultured cells using TRIZOL reagent (invitrogen, Carlsbad, Calif.) and purified using RNeasy Mini Kit (Qiagen, Valencia, Calif.). First- and second-stranded cDNA was synthesized from 10 μg of total RNA using 17-dT) primer (Genset Corp., La Jolla, Calif.) and Superscript Choice system (Invitrogen). Labeled cRNA was synthesized from the purified cDNA by in vitro transcription reaction using the BioArray High Yield RNA Transcript Labeling Kit (Enzo Diagnostics, Inc., Farmingdale, N.Y.) at 37° C. for 6 h. The cRNA was fragmented at 94° C. for 35 min. in a fragmentation buffer [40 mM Tris-acetate @ pH 8.1, 100 mM potassium acestate, and 30 mM magnesium acetate]. The fragmented cRNA was then hybridized to the Human Genome U133A chips (Affymetrix, Santa Clara, Calif.) with 18462 unique gene/EST transcripts at 45° C. for 16 h. The washing and staining procedure was performed in the Affymetrix Fluidics Station according to the manufacturer's instructions. The probes were then scanned using a laser scanner, and signal intensity for each transcript (background-subtracted and adjusted for noise) was calculated using Microarray Suite Software 5.0 (Affymetrix).
# Fold change analysis of signal intensities obtained from oligonucleotide microarrays between the two treatment groups was performed using Data Mining software (Afrymetrix).
# The global changes in gene expression proxies induced by 5Aza-dC in four pancreatic cancer cell lines (AsPCl, Hs766T, MiaPaCa2, and Panel) were determined using the Afrymetrix U133 oligonucleotide microarrays with 18462 probes sets (transcripts) covering over 13000 full-length sequences of known genes.
# [2] = system: Panc1 pancreatic cancer cell line; experiment: Oligonucleotide microarray gene expression after TSA (1 μM, 24 h) vs mock; format: cell-based, human
# Description: These include a large panel of novel targets for silencing by histone deacetylation including several known tumor suppressor genes or cell cycle-regulatory genes (ING1, p57KIP2, CHES1, CHFR, GADD45B, and others).
smiles,measurement,setting,value
"Nc1ncn([C@H]2C[C@H](O)[C@@H](CO)O2)c(=O)n1 [5Aza-dC, 5 aza 2′ deoxycytidine]",Fold-change after 5Aza-dC treatment,"[1]; ANGPT2, Panc1",0.91 fold
same,Fold-change after 5Aza-dC treatment,"[1]; BARD1, Panc1",−1.01 fold
same,Fold-change after 5Aza-dC treatment,"[1]; BNIP3, Panc1",−1.07 fold
same,Fold-change after 5Aza-dC treatment,"[1]; BST2, Panc1",−1.04 fold
same,Fold-change after 5Aza-dC treatment,"[1]; CACNA1G, Panc1",5.26 fold
same,Fold-change after 5Aza-dC treatment,"[1]; CCNE2, Panc1",1.52 fold
same,Fold-change after 5Aza-dC treatment,"[1]; CDH3, Panc1",2.31 fold
same,Fold-change after 5Aza-dC treatment,"[1]; CDKN1A (p21), Panc1",1.93 fold
same,Fold-change after 5Aza-dC treatment,"[1]; CDKN1C, Panc1",3.77 fold
same,Fold-change after 5Aza-dC treatment,"[1]; CLDN5, Panc1",1.88 fold
same,Fold-change after 5Aza-dC treatment,"[1]; CSF1, Panc1",−1.91 fold
same,Fold-change after 5Aza-dC treatment,"[1]; FOXE1, Panc1",1.7 fold
same,Fold-change after 5Aza-dC treatment,"[1]; GAGE1, Panc1",0.46 fold
same,Fold-change after 5Aza-dC treatment,"[1]; GAGE3, Panc1",9.78 fold
same,Fold-change after 5Aza-dC treatment,"[1]; GAGE4, Panc1",35.44 fold
same,Fold-change after 5Aza-dC treatment,"[1]; GAGE6, Panc1",35.5 fold
same,Fold-change after 5Aza-dC treatment,"[1]; GAGE7, Panc1",36.1 fold
same,Fold-change after 5Aza-dC treatment,"[1]; HOXA1, Panc1",1.26 fold
same,Fold-change after 5Aza-dC treatment,"[1]; IGF2, Panc1",9.41 fold
same,Fold-change after 5Aza-dC treatment,"[1]; IL1R1, Panc1",1.37 fold
same,Fold-change after 5Aza-dC treatment,"[1]; ISG20, Panc1",−0.84 fold
same,Fold-change after 5Aza-dC treatment,"[1]; JPH3, Panc1",−4.18 fold
same,Fold-change after 5Aza-dC treatment,"[1]; KLK10, Panc1",−1.05 fold
same,Fold-change after 5Aza-dC treatment,"[1]; LDOC1, Panc1",9.19 fold
same,Fold-change after 5Aza-dC treatment,"[1]; LHX1, Panc1",1.79 fold
same,Fold-change after 5Aza-dC treatment,"[1]; MAGE1, Panc1",7.32 fold
same,Fold-change after 5Aza-dC treatment,"[1]; MATN1, Panc1",3.61 fold
same,Fold-change after 5Aza-dC treatment,"[1]; NEFH, Panc1",4.59 fold
same,Fold-change after 5Aza-dC treatment,"[1]; NPTX2, Panc1",18.94 fold
same,Fold-change after 5Aza-dC treatment,"[1]; PAX6, Panc1",4.45 fold
same,Fold-change after 5Aza-dC treatment,"[1]; PDYN, Panc1",4.84 fold
same,Fold-change after 5Aza-dC treatment,"[1]; PLAT, Panc1",2.13 fold
same,Fold-change after 5Aza-dC treatment,"[1]; PLEK2, Panc1",1.08 fold
same,"transcripts with >5-fold increase, share of the 18462 transcripts analyzed",[1]; Panc1,0.6%
same,transcripts with substantial increase (>5-fold) in signal intensities,"[1]; Panc1, vs mock-treated",116 transcripts
same,Fold-change after 5Aza-dC treatment,"[1]; SARP2, Panc1",−1.47 fold
same,Fold-change after 5Aza-dC treatment,"[1]; SMARCA1, Panc1",1.01 fold
same,Fold-change after 5Aza-dC treatment,"[1]; ST14, Panc1",5.1 fold
same,Fold-change after 5Aza-dC treatment,"[1]; TIMP3, Panc1",1.1 fold
same,Fold-change after 5Aza-dC treatment,"[1]; TJP2, Panc1",1.49 fold
same,Fold-change after 5Aza-dC treatment,"[1]; TNF, Panc1",1.18 fold
same,Fold-change after 5Aza-dC treatment,"[1]; UCHL1, Panc1",2.37 fold
same,Fold-change after 5Aza-dC treatment,"[1]; WNT7A, Panc1",3.57 fold
same,Fold-change after 5Aza-dC treatment,"[1]; XAGE-1, Panc1",24.78 fold
same,Fold-change after 5Aza-dC treatment,"[1]; granulocytemacrophage colony-stimulating factor (M11734), Panc1",2.17 fold
same,Fold-change after 5Aza-dC treatment,"[1]; interferon, alpha-inducible protein (NM_022873), Panc1",1.2 fold
same,Fold-change after 5Aza-dC treatment,"[1]; p53-induced protein (PIGII), Panc1",1.04 fold
same,Fold-change after 5Aza-dC treatment,"[1]; reprimo, Panc1",1.03 fold
same,Fold-change after 5Aza-dC treatment,"[1]; stratifin (14-3-3 sigma), Panc1",1.21 fold
same,Fold-change after 5Aza-dC treatment,"[1]; stromal antigen 3 (STAG5), Panc1",6.84 fold
same,Fold-change after 5Aza-dC treatment,"[1]; testin, Panc1",1.57 fold
"CC(/C=C/C(=O)NO)=C\[C@@H](C)C(=O)c1ccc(N(C)C)cc1 [TSA, trichostatin A]",Fold-change after TSA treatment,"[2]; ADM, Panc1",3.22 fold
same,Fold-change after TSA treatment,"[2]; ANGPT1, Panc1",−1.13 fold
same,Fold-change after TSA treatment,"[2]; AREG, Panc1",4.2 fold
same,Fold-change after TSA treatment,"[2]; ATF3, Panc1",2.74 fold
same,Fold-change after TSA treatment,"[2]; BIK, Panc1",5.02 fold
same,Fold-change after TSA treatment,"[2]; CACNA1G, Panc1",10.14 fold
same,Fold-change after TSA treatment,"[2]; CAPN5, Panc1",5.41 fold
same,Fold-change after TSA treatment,"[2]; CDH8, Panc1",6.85 fold
same,Fold-change after TSA treatment,"[2]; CDKN1C, Panc1",6.26 fold
same,Fold-change after TSA treatment,"[2]; CGR11, Panc1",11.66 fold
same,Fold-change after TSA treatment,"[2]; CHES1, Panc1",9.31 fold
same,Fold-change after TSA treatment,"[2]; CHFR, Panc1",−1.33 fold
same,Fold-change after TSA treatment,"[2]; CLDN15, Panc1",8.69 fold
same,Fold-change after TSA treatment,"[2]; EDR1, Panc1",−2.06 fold
same,Fold-change after TSA treatment,"[2]; EGR4, Panc1",6.44 fold
same,Fold-change after TSA treatment,"[2]; EREG, Panc1",−1.37 fold
same,Fold-change after TSA treatment,"[2]; GADD45B, Panc1",−1.09 fold
same,Fold-change after TSA treatment,"[2]; GAGE1, Panc1",0.63 fold
same,Fold-change after TSA treatment,"[2]; GAGE2, Panc1",1.4 fold
same,Fold-change after TSA treatment,"[2]; GAGE3, Panc1",1.07 fold
same,Fold-change after TSA treatment,"[2]; GAGE4, Panc1",2.29 fold
same,Fold-change after TSA treatment,"[2]; GAGE6, Panc1",1.62 fold
same,Fold-change after TSA treatment,"[2]; GAGE7B, Panc1",3.56 fold
same,Fold-change after TSA treatment,"[2]; HEP27, Panc1",31.64 fold
same,Fold-change after TSA treatment,"[2]; HMOX1, Panc1",1.21 fold
same,Fold-change after TSA treatment,"[2]; HPSE, Panc1",3.03 fold
same,Fold-change after TSA treatment,"[2]; ID2, Panc1",21.22 fold
same,Fold-change after TSA treatment,"[2]; ING1, Panc1",1.5 fold
same,Fold-change after TSA treatment,"[2]; KLK12, Panc1",2.13 fold
same,Fold-change after TSA treatment,"[2]; MAGE1, Panc1",15.48 fold
same,Fold-change after TSA treatment,"[2]; MBD1, Panc1",−1.82 fold
same,Fold-change after TSA treatment,"[2]; MMP1, Panc1",−2.63 fold
same,Fold-change after TSA treatment,"[2]; NGFR, Panc1",30.7 fold
same,Fold-change after TSA treatment,"[2]; NOTCH3, Panc1",3.9 fold
same,Fold-change after TSA treatment,"[2]; P-glycoprotein (mdr1), Panc1",3.69 fold
same,transcripts with marked induction,[2]; Panc1,459 transcripts
same,"transcripts with marked induction, share of transcripts analyzed",[2]; Panc1 (printed Panel),2.5%
same,Fold-change after TSA treatment,"[2]; SPANXA1, Panc1",6.45 fold
same,Fold-change after TSA treatment,"[2]; STC1, Panc1",5.63 fold
same,Fold-change after TSA treatment,"[2]; UCPH, Panc1",2.05 fold
same,Fold-change after TSA treatment,"[2]; ULBP2, Panc1",18.25 fold
same,Fold-change after TSA treatment,"[2]; WNT4, Panc1",5.13 fold
same,Fold-change after TSA treatment,"[2]; candidate tumor suppressor gene 21 protein (AF040708), Panc1",1.01 fold
same,Fold-change after TSA treatment,"[2]; connective tissue growth factor (M92934), Panc1",7.69 fold
same,Fold-change after TSA treatment,"[2]; hemoglobin, alpha 1 (HBAI), Panc1",4.55 fold
same,Fold-change after TSA treatment,"[2]; interleukin 8, Panc1",3.01 fold
same,Fold-change after TSA treatment,"[2]; member 2 (BC002649), Panc1",5.04 fold
same,Fold-change after TSA treatment,"[2]; period homolog 1 (PERI), Panc1",−3.83 fold
same,Fold-change after TSA treatment,"[2]; prostate differentiation factor (AF003934), Panc1",4.05 fold
same,Fold-change after TSA treatment,"[2]; protease inhibitor 12 (neuroserpin) (SERPINU), Panc1",11.7 fold
same,Fold-change after TSA treatment,"[2]; synovial sarcoma, X breakpoint 1 (BC001003), Panc1",2.73 fold
same,Fold-change after TSA treatment,"[2]; tissue factor pathway inhibitor-2 (L27624), Panc1",34.65 fold
